Literature values as cited in article PMC6376154 (International Journal for Parasitology: Drugs and Drug …, 2019).
Like-named read-outs stand apart in the source and are kept apart here.

Tested on: P. falciparum 3D7 asexual blood stage
Conditions: cited from earlier work
[1] = MMV Malaria Box data sheet, ref MMV data sheets
[2] = MMV Malaria Box data sheet, ref MMV data sheets, read-out: EC50_nM
[3] = source GSK, ref ChEMBL_NTD, read-out: CHEMBL EC50
[4] = ChEMBL-NTD value per source (GNF, GSK, StJude), several values in a cell follow the order of the sources, read-out: CHEMBL EC50
[5] = MMV Malaria Box sheet, ref MMV data sheets
[6] = MMV Malaria Box data sheet (supplement mmc2.xls), ref MMV data sheet, read-out: EC50_nM
[7] = value(s) per source (GSK, GNF, StJude), separated by semicolon, ref ChEMBL-NTD, read-out: CHEMBL EC50
[8] = MMV Malaria Box data sheet (supplement mmc2.xls), ref MMV data sheet
[9] = MMV Malaria Box sheet, ref MMV data sheets, read-out: EC50_nM
[10] = source GNF, ref ChEMBL_NTD, read-out: CHEMBL EC50

COc1ccc(Br)cc1C1Nc2ccc3ccccc3c2C2=C1C(=O)CC(c1ccccc1)C2 (centres unmarked) [MMV020885]
percent_inh @ 5 uM [1]: 95% | EC50 [2]: 0.18 µM | EC50 [3]: 0.59 µM

Cc1ccc(-c2nc3ccccc3o2)cc1NCc1cc(Cc2ccccc2)ccc1O [MMV020912]
EC50 [4]: 1.03 µM

CCC(=O)Nc1nnc(Cc2ccc(OC)c(OC)c2)s1 [MMV020942]
percent_inh @ 5 uM [5]: 47% | EC50 [3]: 0.91 µM

COc1cc(SC)ccc1C(=O)N1CCCC(C)C1 (centres unmarked) [MMV056726]
percent_inh @ 2 uM (2 uM, MMV Malaria Box data sheet (supplement mmc2.xls), ref MMV data sheet): 45% | EC50 [6]: 4 µM | EC50 [7]: 9.81 µM

CN(C)c1ccc(N=Cc2ccc(N3CCOCC3)cc2)cc1 [MMV073843]
EC50 [4]: 0.175 µM

CCOc1ccc(C2N(C)c3ccccc3N2C)cc1 [MMV075490]
percent_inh @ 5 uM [8]: 72% | EC50 [6]: 0.941 µM

COc1cc2c(cc1OC)C1=NNC(=O)C1=NC(C)(C)C2 [MMV084940]
EC50 [9]: 1.04 µM | EC50 [10]: 1.58 µM

COc1ccccc1N=C1C(=O)c2ccccc2C(O)=C1N1CCCCC1 [MMV085203]
percent_inh @ 5 uM [1]: 98% | EC50 [2]: 0.0053 µM | EC50 [10]: 0.028 µM

CCOc1ccc(-n2cc(-c3ccccc3)c3c(SCc4cc(C)ccc4C)ncnc32)cc1 [MMV085471]
percent_inh @ 5 uM [5]: 97% | EC50 [9]: 1.71 µM | EC50 [10]: 2.01 µM

CCCCCC(=O)N1c2ccccc2N=C2CC(c3ccc(OC)c(OC)c3)CC(O)=C2C1c1ccc(C(F)(F)F)cc1 (centres unmarked) [MMV085583]
percent_inh @ 5 uM [1]: 100% | EC50 [2]: 0.237 µM | EC50 [10]: 0.107 µM

Cc1ccc(C(=O)c2oc3ccc4c(C)cc(=O)oc4c3c2C)cc1 [MMV086103]
EC50 [4]: 1.03 µM

COc1cc(CNCCc2ccc(Cl)cc2)cc(OC)c1O [MMV128432]
EC50 [4]: 6.89 µM

CC(C)(C)c1ccc(C(=O)Nc2nc3ccccc3s2)cc1 [MMV142383]
percent_inh @ 5 uM [8]: 81% | EC50 [7]: 15 µM

COc1ccc2nc(C)cc(Nc3ccccc3O)c2c1 [MMV274073]
EC50 [6]: 0.686 µM

CCn1nc(-c2ccc(C(=O)OC)cc2)nc2c(=O)n(C)c(=O)nc1-2 [MMV306025]
EC50 [6]: 0.693 µM

CCOc1ccccc1CN1CCc2nc3cc(C(C)(C)C)nn3c(O)c2C1 [MMV396595]
EC50 [9]: 1.01 µM

CCOc1c(Cl)cc(CNCC(O)c2ccccc2)cc1OC (centres unmarked) [MMV396632]
EC50 [9]: 1.05 µM

CCOc1cc(CNC(C)C(O)c2ccccc2)cc(Cl)c1OCC (centres unmarked) [MMV396633]
EC50 [6]: 1.24 µM

Cc1cc(N2CCCC2)nc(Nc2ccc(NC(=O)CCc3ccccc3)cc2)n1 [MMV396669]
EC50 [9]: 1.07 µM

O=C(NCC(c1ccsc1)N1CCCCCC1)c1ccc(C(F)(F)F)cc1 (centres unmarked) [MMV396672]
EC50 [2]: 0.433 µM

O=C(CSc1nccn2nc(-c3ccccc3)cc12)Nc1cc(C(F)(F)F)ccc1Cl [MMV396678]
EC50 [2]: 0.218 µM

COc1ccc(-c2cc3c(SCC(=O)Nc4cc(C(F)(F)F)ccc4Cl)nccn3n2)cc1 [MMV396679]
EC50 [2]: 0.0899 µM

Cc1ccc(-c2cc3c(SCC(=O)Nc4cc(C(F)(F)F)ccc4Cl)nccn3n2)cc1 [MMV396680]
EC50 [2]: 0.0928 µM

Cc1cc(NC(=O)c2cccc(C(F)(F)F)c2)n(-c2nc(-c3ccc4c(c3)OCO4)cs2)n1 [MMV396681]
EC50 [6]: 0.959 µM

C[n+]1c2ccccc2nc2ccc(NCCO)cc21 [MMV396693]
EC50 [2]: 0.296 µM

CCN(CC)CCNc1ncnc2c1[nH]c1ccc(Cl)cc12 [MMV396703]
EC50 [2]: 0.406 µM

CN1CCN(c2ncnc3c2[nH]c2ccc(Cl)cc23)CC1 [MMV396704]
EC50 [9]: 1.19 µM

COc1cccc(Cn2c(Oc3ccccc3)nc3c2c(=O)n(C)c(=O)n3C)c1 [MMV396705]
EC50 [9]: 1.39 µM

CC1(c2ccccc2)Nc2ccccc2-c2nc3ccccc3n21 (centres unmarked) [MMV396715]
EC50 [9]: 1.73 µM

COc1cccc(C2(C)Nc3ccccc3-c3nc4ccccc4n32)c1 (centres unmarked) [MMV396719]
EC50 [6]: 1.15 µM

OC(CNCC1CCCO1)Cn1c2ccc(Cl)cc2c2cc(Cl)ccc21 (centres unmarked) [MMV396736]
EC50 [6]: 1.06 µM

CC(C)CNC(=O)c1c(N)n(CCc2ccccc2F)c2nc3ccccc3nc12 [MMV396744]
EC50 [6]: 0.832 µM

COc1ccc2c(c1)C1(Nc3ccccc3-c3nc4ccccc4n31)C(=O)N2 (centres unmarked) [MMV396749]
EC50 [9]: 0.928 µM

CC(C)(C)CC(C)(C)NCC(O)COc1ccc(Cl)cc1Cl (centres unmarked) [MMV396794]
EC50 [6]: 1.16 µM

COc1ccc(-c2c(C)nn3c(N)c(C#N)cnc23)cc1OC [MMV396797]
EC50 [2]: 0.477 µM

Cc1cccc(-n2ncc3c(=O)[nH]c(-n4nc(C)cc4NC(=O)c4cc5ccccc5o4)nc32)c1 [MMV403679]
EC50 [6]: 0.929 µM
